# Test results: patent US20240415878A1, “Compositions and Methods for Modulating Mitochondrial Function” (Board of Regents, The University of Texas System, priority 2021, published 2024)
# Tests used:
# [1] = target: T1, human MRS2 (Homo sapiens, UniProt Q9HD23); experiment: Dynamic light scattering of purified full-length MRS2 assembly; format: binding; conditions: 0.5 mM
# T1 construct: 6xHis (N, cleaved yes); made in house; host or cells: BL21 (DE3) codon+ Escherichia coli, pET-28a
# T1 sequence (Q9HD23 58-443): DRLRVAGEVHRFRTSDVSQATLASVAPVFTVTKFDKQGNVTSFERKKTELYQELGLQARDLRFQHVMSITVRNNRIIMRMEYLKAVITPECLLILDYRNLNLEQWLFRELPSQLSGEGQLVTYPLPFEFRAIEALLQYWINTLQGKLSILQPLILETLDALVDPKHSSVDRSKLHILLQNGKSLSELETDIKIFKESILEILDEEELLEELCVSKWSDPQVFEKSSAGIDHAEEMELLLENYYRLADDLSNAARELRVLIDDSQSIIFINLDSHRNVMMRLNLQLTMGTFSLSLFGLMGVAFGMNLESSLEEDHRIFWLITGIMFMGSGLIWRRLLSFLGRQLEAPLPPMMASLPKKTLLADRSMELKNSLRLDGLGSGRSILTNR
# Procedure: Next, CPACC was assessed to determine if it directly affects the assembly of purified human MRS2 using dynamic light scattering (DLS). DLS has been used to determine whether the complex stability of proteins/channels is altered by molecular chaperones or drugs (Kitamura et al., 2006). Because of the high sensitivity of DLS to changes in complex sizes, full-length Mrs2 assembly was evaluated in the presence Ca^2+ (5 mM), Mg^2+ (5 mM), Co^2+ (5 mM) or the Mrs2 blocker CPACC (0.5 mM) (FIG. 10K, FIG. 10L, FIG. 10M, FIG. 10N, FIG. 10O). […] A concentration-response assessment confirmed robust decreases in hydrodynamic radii at all CPACC concentrations tested and as low as 10 μM (FIG. 10O).
# MRS2 cloning, expression, and purification. The full length human MRS2 (NCBI accession NP_065713.1), identified as MRS258-443 (i.e. residues 58-443) and excluding the mitochondrial targeting sequence, was cloned into pET-28a using Ndel and Xhol restriction sites. […]
# Dynamic light scattering (DIS). […] The sample was equilibrated for 5 min at 20° C. before 10 autocorrelation function acquisitions of 5 s each were recorded and averaged. […] The dependence of hydrodynamic size on CPACC concentration was determined using ≈0.5 mg/mL protein supplemented with 0.01 mM, 0.05 mM, 0.1 mM, 0.5 mM or 0.75 mM CPACC, using a similar experimental setup as described above and cumulants analysis.
# [2] = target: Bacterial CorA (Salmonella typhimurium, UniProt P0A2R8); conditions: Kucharski et al., 2000, read-out: IC50 for CorA inhibition; cited from earlier work
# Bacterial CorA, sequence (P0A2R8 whole entry): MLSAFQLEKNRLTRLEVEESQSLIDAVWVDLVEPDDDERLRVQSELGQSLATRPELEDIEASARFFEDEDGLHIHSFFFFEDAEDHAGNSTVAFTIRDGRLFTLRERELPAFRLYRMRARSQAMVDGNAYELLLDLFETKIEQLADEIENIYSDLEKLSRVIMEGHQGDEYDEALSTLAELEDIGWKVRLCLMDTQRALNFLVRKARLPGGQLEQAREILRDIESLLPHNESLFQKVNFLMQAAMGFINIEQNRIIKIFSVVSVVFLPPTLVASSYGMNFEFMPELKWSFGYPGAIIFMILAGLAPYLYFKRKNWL
compound,measurement,setting,value
"[NH2][Co]([NH2])([NH2])([NH2])([NH2])[Cl] [CPACC, chloropentaammine cobalt (III) chloride]",full-length MRS2 complex sizes (DLS),[1],potently decreased
same,IC50,[2],~100 µM
